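Results reflect a 48-hour exposure of cells in 96-well plates to compound at five concentrations. TGI: total growth inhibition.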
How the values were obtained:
Experiment in all cases: NCI-60 cell line screen, 48 h
[1] = system: 786-0 renal
[2] = system: A498 renal
[3] = system: A549 NSCLC
[4] = system: ACHN renal
[5] = system: BT-549 breast
[6] = system: CAKI-1 renal
[7] = system: CCRF-CEM leukemia
[8] = system: COLO 205 colon
[9] = system: DU-145 prostate
[10] = system: EKVX NSCLC
[11] = system: HCC-2998 colon
[12] = system: HCT-116 colon
[13] = system: HCT-15 colon
[14] = system: HL-60(TB) leukemia
[15] = system: HOP-62 NSCLC
[16] = system: HOP-92 NSCLC
[17] = system: HS 578T breast
[18] = system: HT29 colon
[19] = system: IGROV1 ovarian
[20] = system: K-562 leukemia
[21] = system: KM12 colon
[22] = system: LOX IMVI melanoma
[23] = system: M14 melanoma
[24] = system: MALME-3M melanoma
[25] = system: MCF7 breast
[26] = system: MDA-MB-231 breast
[27] = system: MDA-MB-435
[28] = system: MDA-N
[29] = system: MOLT-4 leukemia
[30] = system: NCI-H23 lung
[31] = system: NCI-H460 lung
[32] = system: NCI-H522 lung
[33] = system: NCI/ADR-RES ovarian
[34] = system: OVCAR-3 ovarian
[35] = system: OVCAR-4 ovarian
[36] = system: OVCAR-5 ovarian
[37] = system: OVCAR-8 ovarian
[38] = system: PC-3 prostate
[39] = system: RPMI-8226 leukemia
[40] = system: RXF 393 renal
[41] = system: SF-268 CNS
[42] = system: SF-295 CNS
[43] = system: SF-539 CNS
[44] = system: SK-MEL-2 melanoma
[45] = system: SK-MEL-28 melanoma
[46] = system: SK-MEL-5 melanoma
[47] = system: SN12C renal
[48] = system: SNB-19 CNS
[49] = system: SR leukemia
[50] = system: SW-620 colon
[51] = system: T-47D breast
[52] = system: TK-10 renal
[53] = system: U251 CNS
[54] = system: UACC-257 melanoma
[55] = system: UACC-62 melanoma
[56] = system: UO-31 renal
[57] = system: NCI-H226 lung
[58] = system: SK-OV-3 ovarian
[59] = system: SNB-75 CNS

Measured: TGI

CC1=NN(C(=O)CC(=O)Nc2ccccc2Cl)C(=O)C1N=Nc1ccc(C(=O)O)cc1 (centres undefined)
not listed: [57] | [58] | [59]
> 100 µM: all other assays above

COc1ccc2c(c1)CCc1c(-c3noc4c3CCc3cc(OC)ccc3-4)noc1-2
not listed: [7]
> 100 µM: all other assays above
